The values below come from US20160136229A1, “MATERIALS FOR POSITIVE CATHEPSIN B MODULATION AND METHODS OF USE FOR TREATING MILD COGNITIVE IMPAIRMENT (MCI), EARLY DEMENTIA, A-SYNUCLEINOPATHY, TRAUMATIC BRAIN INJURY, CARDIOMYOPATHY, EYE DISEASE AND SKIN DAMAGE” (University of North Carolina at Pembroke, priority 2013, published 2016).

Test [1] concerns transgenic mouse model of Alzheimer's disease. The settings on record: cited from earlier work.
A further test concerns Fischer rats. The settings on record: cited from earlier work.
Another test concerns active cathepsin B. Put plainly: Active cathepsin B in rat organotypic heart slice cultures (Aβ-induced cardiomyopathy model). The settings on record: 2 days of treatment, P=0.027 vs vehicle. In kind it is cell-based. Here is the method:
FIG. 9. The active form of cathepsin B is reduced in the slice model of Δβ-induced cardiomyopathy. Organotypic heart slice cultures from rats were treated with the control vehicle solution or with Δβ42, the peptide that accumulates in Alzheimer's disease brains as well as in heart tissue during some forms of cardiomyopathy.
To test for changes in cathepsin B during protein accumulation induced myopathy, heart slice cultures from rat were prepared and treated with […], the peptide that accumulates in Alzheimer's disease brains as well as in heart tissue during some forms of cardiomyopathy (Bateman et al., 2012; Sanbe et al., 2004, 2005).

For `CC12CC3CC(C)(C1)CC(N)(C3)C2` [memantine], the spatial learning entry in test [1] was “improve spatial learning”. In addition, in the test with Fischer rats, the spatial memory entry was “failed to significantly improve”.
As for “Aβ42: the peptide that accumulates in Alzheimer's disease brains as well as in heart tissue during some forms of cardiomyopathy”, the “active cathepsin B in heart slices” value in the test with active cathepsin B is “significant decrease”.
